Among the data in US11866430B2, “Naphthyridinone compounds useful as T cell activators” (priority 2018, dated 2024) are IC50 values, retold here.

The target of one assay is human DGKα (Homo sapiens (Human), UniProt P23743). Briefly: biochemical. Particulars: detergent/lipid micelle substrate; read-out: DGKα IC50. A digest of the protocol:
(§1)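 Full-length human DGKα or DGKζ (C-terminal His tag, Sf9-expressed; 20 nM 4× stock) was preincubated 10 min at room temperature with PS/DAG octyl glucoside micelles in MOPS pH 7.5 buffer with MgCl2, CaCl2 and DTT. It was then started with ATP (300 uM addition) and run for 1 hr, with ADP-Glo luminescence read-out.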

The target of a further assay is human DGKζ (Homo sapiens (Human), UniProt Q13574). Kind of assay: DGKζ assay (detergent/lipid micelle substrate). Format: biochemical. Particulars: detergent/lipid micelle substrate; read-out: DGKζ IC50. The gist of the method: as §1
Assay [1] relates to pre-activated CD4 T cells and Raji cells. Briefly: Raji CD4 T Cell IL2 Assay. In kind it is cell-based. As to conditions: Homo sapiens, Raji.

The term IC50 denotes the concentration that gives 50% inhibition.

Some results are limits rather than exact numbers.

Sequence of human DGKζ (Q13574 other isoform, or with tags, fused parts or gaps): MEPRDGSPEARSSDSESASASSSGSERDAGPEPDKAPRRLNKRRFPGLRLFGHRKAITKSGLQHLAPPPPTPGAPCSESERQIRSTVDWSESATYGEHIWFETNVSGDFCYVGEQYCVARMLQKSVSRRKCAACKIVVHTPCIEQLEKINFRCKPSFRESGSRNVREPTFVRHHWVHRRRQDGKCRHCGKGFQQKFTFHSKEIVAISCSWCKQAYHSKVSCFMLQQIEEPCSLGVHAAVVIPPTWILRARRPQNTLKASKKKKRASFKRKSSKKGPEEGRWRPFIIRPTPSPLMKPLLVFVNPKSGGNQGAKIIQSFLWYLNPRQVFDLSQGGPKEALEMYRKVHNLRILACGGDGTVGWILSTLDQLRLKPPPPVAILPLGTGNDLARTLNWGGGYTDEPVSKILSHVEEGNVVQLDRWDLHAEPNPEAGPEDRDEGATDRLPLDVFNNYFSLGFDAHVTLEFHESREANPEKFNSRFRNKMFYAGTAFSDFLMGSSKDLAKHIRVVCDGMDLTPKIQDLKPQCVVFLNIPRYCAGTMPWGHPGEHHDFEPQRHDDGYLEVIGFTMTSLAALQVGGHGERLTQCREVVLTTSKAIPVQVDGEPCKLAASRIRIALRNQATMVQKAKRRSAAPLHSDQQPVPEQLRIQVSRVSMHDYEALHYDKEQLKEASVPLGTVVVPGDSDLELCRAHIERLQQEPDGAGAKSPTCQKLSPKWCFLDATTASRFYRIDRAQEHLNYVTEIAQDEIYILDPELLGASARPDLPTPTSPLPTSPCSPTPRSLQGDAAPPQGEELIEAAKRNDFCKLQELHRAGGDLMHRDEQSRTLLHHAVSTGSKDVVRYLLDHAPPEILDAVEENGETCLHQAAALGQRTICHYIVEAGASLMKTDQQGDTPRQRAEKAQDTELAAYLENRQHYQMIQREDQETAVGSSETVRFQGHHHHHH
Sequence of human DGKα (P23743 other isoform, or with tags, fused parts or gaps): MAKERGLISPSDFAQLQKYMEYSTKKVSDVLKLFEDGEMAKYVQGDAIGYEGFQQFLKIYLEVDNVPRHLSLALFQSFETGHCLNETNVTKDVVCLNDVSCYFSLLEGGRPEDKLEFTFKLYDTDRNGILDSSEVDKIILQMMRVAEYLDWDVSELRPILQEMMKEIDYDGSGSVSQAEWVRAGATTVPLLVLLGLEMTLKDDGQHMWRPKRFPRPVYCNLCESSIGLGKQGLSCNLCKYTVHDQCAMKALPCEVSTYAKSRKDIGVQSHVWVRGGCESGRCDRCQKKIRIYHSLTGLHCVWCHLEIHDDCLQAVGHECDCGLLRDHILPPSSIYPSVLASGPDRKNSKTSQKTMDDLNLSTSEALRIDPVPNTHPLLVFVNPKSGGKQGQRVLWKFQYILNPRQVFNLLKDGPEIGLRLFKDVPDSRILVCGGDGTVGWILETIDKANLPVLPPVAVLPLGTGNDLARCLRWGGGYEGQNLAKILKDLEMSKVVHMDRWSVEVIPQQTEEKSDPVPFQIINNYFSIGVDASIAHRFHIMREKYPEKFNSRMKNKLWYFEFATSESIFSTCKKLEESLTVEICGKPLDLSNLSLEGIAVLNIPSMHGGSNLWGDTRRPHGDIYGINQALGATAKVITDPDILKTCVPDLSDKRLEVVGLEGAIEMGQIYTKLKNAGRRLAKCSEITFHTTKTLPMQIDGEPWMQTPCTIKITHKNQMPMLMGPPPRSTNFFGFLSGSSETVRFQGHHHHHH

As to `Cn1c(=O)c(C#N)c(N2CCN(Cc3ccccc3NC(=O)OC(C)(C)C)CC2)c2nc(Br)ccc21` [Example 284, tert-butyl N-(2-{[4-(6-bromo-3-cyano-1-methyl-2-oxo-1,2-dihydro-1,5-naphthyridin-4-yl)piperazin-1-yl]methyl}phenyl)carbamate], the half-maximal inhibitory concentration (IC50) on human DGKα was 1000 nM; at human DGKζ, more than 240 µM; in assay [1], 98 nM.
Regarding `Cn1c(=O)c(C#N)c(N2CCN(Cc3ccccc3OC(F)(F)F)CC2)c2nc(Cl)ccc21` [Example 285, 6-chloro-1-methyl-2-oxo-4-(4-{[2-(trifluoromethoxy)phenyl]methyl}piperazin-1-yl)-1,2-dihydro-1,5-naphthyridine-3-carbonitrile], the IC50 on human DGKα is 910 nM; at human DGKζ it was more than 240 µM; in assay [1], 100 nM.
On the same counts, the results for `Cc1ccc2c(n1)c(N1CCN(Cc3cccc(Br)c3O)CC1)c(C#N)c(=O)n2C` [Example 286, 4-{4-[(3-bromo-2-hydroxyphenyl)methyl]piperazin-1-yl}-1,6-dimethyl-2-oxo-1,2-dihydro-1,5-naphthyridine-3-carbonitrile] are 1200 nM, 140 µM and 100 nM.
The matching figures for `Cc1ccc(CN2CCN(c3c(C#N)c(=O)n(C)c4ccc(Cl)nc34)CC2)cc1F` [Example 289, 6-chloro-4-{4-[(3-fluoro-4-methylphenyl)methyl]piperazin-1-yl}-1-methyl-2-oxo-1,2-dihydro-1,5-naphthyridine-3-carbonitrile]: 250 nM, more than 81 µM and 110 nM.
`Cc1cc(F)cc(CN2CCN(c3c(C#N)c(=O)n(C)c4ccc(Cl)nc34)CC2)c1` [Example 290, 6-chloro-4-{4-[(3-fluoro-5-methylphenyl)methyl]piperazin-1-yl}-1-methyl-2-oxo-1,2-dihydro-1,5-naphthyridine-3-carbonitrile]: the figures for the half-inhibitory concentration (IC50) (on human DGKα; on human DGKζ; in assay [1]) were 2200 nM, more than 240 µM and 110 nM, respectively.
The matching figures for `Cn1c(=O)c(C#N)c(N2CCN(Cc3cc(F)cc(F)c3)CC2)c2nc(Cl)ccc21` [Example 291, 6-chloro-4-{4-[(3,5-difluorophenyl)methyl]piperazin-1-yl}-1-methyl-2-oxo-1,2-dihydro-1,5-naphthyridine-3-carbonitrile]: 330 nM, more than 81 µM and 110 nM.
The matching figures for `Cn1c(=O)c(C#N)c(N2CCN(Cc3c(O)cccc3F)CC2)c2nc(Br)ccc21` [Example 294, 6-bromo-4-{4-[(2-fluoro-6-hydroxyphenyl)methyl]piperazin-1-yl}-1-methyl-2-oxo-1,2-dihydro-1,5-naphthyridine-3-carbonitrile]: 110 nM, more than 240 µM and 140 nM.
On the same counts, the results for `Cc1ccc2c(n1)c(N1CCN(Cc3cc(Cl)ccc3O)CC1)c(C#N)c(=O)n2C` [Example 296, 4-{4-[(5-chloro-2-hydroxyphenyl)methyl]piperazin-1-yl}-1,6-dimethyl-2-oxo-1,2-dihydro-1,5-naphthyridine-3-carbonitrile] are 980 nM, 150 µM and 150 nM.
Regarding `COc1ccccc1CN1CCN(c2c(C#N)c(=O)n(C)c3ccc(Br)nc23)CC1` [Example 297, 6-bromo-4-{4-[4(2-methoxyphenyl)methyl]piperazin-1-yl}-1-methyl-2-oxo-1,2-dihydro-1,5-naphthyridine-3-carbonitrile], the values for the IC50 (at human DGKα; at human DGKζ; in assay [1]) were 890 nM, more than 240 µM and 160 nM, respectively.
On the same counts, the results for `Cn1c(=O)c(C#N)c(N2CCN(Cc3cc(F)cc(F)c3O)CC2)c2nc(Cl)ccc21` [Example 298, 6-chloro-4-{4-[(3,5-difluoro-2-hydroxyphenyl)methyl]piperazin-1-yl}-1-methyl-2-oxo-1,2-dihydro-1,5-naphthyridine-3-carbonitrile] are 830 nM, 27 µM and 160 nM.
The matching figures for `Cn1c(=O)c(C#N)c(N2CCN(Cc3cccc4c3NCC4)CC2)c2nc(Br)ccc21` [Example 299, 6-bromo-4-{4-[(2,3-dihydro-1H-indol-7-yl)methyl]piperazin-1-yl}-1-methyl-2-oxo-1,2-dihydro-1,5-naphthyridine-3-carbonitrile]: 570 nM, more than 240 µM and 160 nM.
The matching figures for `Cn1c(=O)c(C#N)c(N2CCN(Cc3cccc(Cl)c3)CC2)c2nc(Cl)ccc21` [Example 302, 6-chloro-4-{4-[(3-chlorophenyl)methyl]piperazin-1-yl}-1-methyl-2-oxo-1,2-dihydro-1,5-naphthyridine-3-carbonitrile]: 610 nM, more than 81 µM and 180 nM.
For the compound `Cn1c(=O)c(C#N)c(N2CCN(Cc3cccc4cc[nH]c34)CC2)c2nc(Cl)ccc21` [Example 303, 6-chloro-4-{4-[_(1H-indol-7-yl)methyl]piperazin-1-yl}-1-methyl-2-oxo-1,2-dihydro-1,5-naphthyridine-3-carbonitrile], the half-inhibitory concentration (IC50) on human DGKα is 900 nM; at human DGKζ, more than 240 µM; in assay [1], 180 nM.
In the case of `Cn1c(=O)c(C#N)c(N2CCN(Cc3cccc(F)c3O)CC2)c2nc(Cl)ccc21` [Example 306, 6-chloro-4-{4-[(3-fluoro-2-hydroxyphenyl)methyl]piperazin-1-yl}-1-methyl-2-oxo-1,2-dihydro-1,5-naphthyridine-3-carbonitrile], the IC50 was 200 nM at human DGKα, more than 240 µM at human DGKζ and 210 nM in assay [1].
Consider `Cn1c(=O)c(C#N)c(N2CCN(Cc3cc(Cl)cc(Cl)c3O)CC2)c2nc(Cl)ccc21` [Example 307, 6-chloro-4-{4-[(3,5-dichloro-2-hydroxyphenyl)methyl]piperazin-1-yl}-1-methyl-2-oxo-1,2-dihydro-1,5-naphthyridine-3-carbonitrile], for which the half-inhibitory concentration (IC50) was 1800 nM at human DGKα, more than 81 µM on human DGKζ and 210 nM in assay [1].
`Cn1c(=O)c(C#N)c(N2CCN(Cc3ccc(Cl)cc3Cl)CC2)c2nc(Cl)ccc21` [Example 310, 6-chloro-4-{4-[(2,4-dichlorophenyl)methyl]piperazin-1-yl}-1-methyl-2-oxo-1,2-dihydro-1,5-naphthyridine-3-carbonitrile]: the concentration for half-maximal inhibition (IC50) on human DGKα is 970 nM; on human DGKζ it was more than 240 µM; in assay [1] it was 220 nM.
In the case of `COc1cccc(O)c1CN1CCN(c2c(C#N)c(=O)n(C)c3ccc(Br)nc23)CC1` [Example 314, 6-bromo-4-{4-[(2-hydroxy-6-methoxyphenyl)methyl]piperazin-1-yl}-1-methyl-2-oxo-1,2-dihydro-1,5-naphthyridine-3-carbonitrile], the half-inhibitory concentration (IC50) on human DGKα amounted to 170 nM; on human DGKζ, 82 µM; in assay [1] it was 250 nM.
The matching figures for `Cn1c(=O)c(C#N)c(N2CCN(Cc3ccccc3O)CC2)c2nc(C#N)ccc21` [Example 317, 8-{4-[(2-hydroxyphenyl)methyl]piperazin-1-yl}-5-methyl-6-oxo-5,6-dihydro-1,5-naphthyridine-2,7-dicarbonitrile]: 160 nM, 34 µM and 290 nM.
In the case of `Cn1c(=O)c(C#N)c(N2CCN(Cc3cc(F)ccc3F)CC2)c2nc(Cl)ccc21` [Example 318, 6-chloro-4-{4-[(2,5-difluorophenyl)methyl]piperazin-1-yl}-1-methyl-2-oxo-1,2-dihydro-1,5-naphthyridine-3-carbonitrile], the IC50 on human DGKα was 850 nM; on human DGKζ it was 140 µM; in assay [1] it was 290 nM.
As to `Cn1c(=O)c(C#N)c(N2CCN(Cc3ccc(F)c(F)c3)CC2)c2nc(Cl)ccc21` [Example 319, 6-chloro-4-{4-[(3,4-difluorophenyl)methyl]piperazin-1-yl}-1-methyl-2-oxo-1,2-dihydro-1,5-naphthyridine-3-carbonitrile], the IC50 on human DGKα worked out at 550 nM; at human DGKζ, 220 µM; in assay [1] it was 300 nM.
On the same counts, the results for `Cn1c(=O)c(C#N)c(N2CCN(Cc3cc(F)cc(F)c3O)CC2)c2nc(Br)ccc21` [Example 320, 6-bromo-4-{4-[(3,5-difluoro-2-hydroxyphenyl)methyl]piperazin-1-yl}-1-methyl-2-oxo-1,2-dihydro-1,5-naphthyridine-3-carbonitrile] are 890 nM, more than 240 µM and 300 nM.
On the same counts, the results for `Cn1c(=O)c(C#N)c(N2CCN(Cc3cccc4cn[nH]c34)CC2)c2nc(Cl)ccc21` [Example 322, 6-chloro-4-{4-[(1H-indazol-7-yl)methyl]piperazin-1-yl}-1-methyl-2-oxo-1,2-dihydro-1,5-naphthyridine-3-carbonitrile] are 2800 nM, more than 240 µM and 320 nM.
On the same counts, the results for `Cn1c(=O)c(C#N)c(N2CCN(Cc3cc(F)cc(Cl)c3)CC2)c2nc(Cl)ccc21` [Example 324, 6-chloro-4-{4-[(3-chloro-5-fluorophenyl)methyl]piperazin-1-yl}-1-methyl-2-oxo-1,2-dihydro-1,5-naphthyridine-3-carbonitrile] are 190 nM, more than 240 µM and 350 nM.
As for `Cn1c(=O)c(C#N)c(N2CCN(Cc3ccc(Cl)c(F)c3)CC2)c2nc(Cl)ccc21` [Example 326, 6-chloro-4-{4-[(4-chloro-3-fluorophenyl)methyl]piperazin-1-yl}-1-methyl-2-oxo-1,2-dihydro-1,5-naphthyridine-3-carbonitrile], the half-maximal inhibitory concentration (IC50) at human DGKα is 1900 nM; at human DGKζ, more than 240 µM; in assay [1] it was 380 nM.
